Calls of active or inactive are those of the source. The rule behind the calls is not given here.
Legend:
[1] = molecular target: T1, Estrogen receptor (Homo sapiens) (UniProt P03372); test: Induction of ERalpha degradation in human MCF7 cells assessed as ERalpha/actin ratio level at 6 uM after 6 hrs by Western blot analysis (reference value: 100%); type: cell-based
T1 sequence (whole entry): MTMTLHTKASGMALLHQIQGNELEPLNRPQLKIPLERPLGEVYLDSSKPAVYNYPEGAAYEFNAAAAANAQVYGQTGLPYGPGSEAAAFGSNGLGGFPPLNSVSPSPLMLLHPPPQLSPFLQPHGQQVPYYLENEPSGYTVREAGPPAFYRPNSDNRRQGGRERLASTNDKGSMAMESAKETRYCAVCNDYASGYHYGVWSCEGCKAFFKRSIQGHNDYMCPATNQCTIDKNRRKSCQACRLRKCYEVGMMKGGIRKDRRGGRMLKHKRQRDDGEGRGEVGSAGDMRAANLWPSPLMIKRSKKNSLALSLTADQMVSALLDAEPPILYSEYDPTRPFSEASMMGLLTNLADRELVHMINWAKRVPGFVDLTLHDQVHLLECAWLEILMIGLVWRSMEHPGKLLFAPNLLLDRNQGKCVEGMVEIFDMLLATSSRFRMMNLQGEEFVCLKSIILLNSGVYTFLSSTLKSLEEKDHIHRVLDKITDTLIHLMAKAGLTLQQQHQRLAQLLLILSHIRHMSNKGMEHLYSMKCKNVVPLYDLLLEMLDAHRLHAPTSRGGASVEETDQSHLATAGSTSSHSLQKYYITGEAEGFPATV

[2] = molecular target: T2, Androgen receptor (Homo sapiens) (UniProt P10275); test: Induction of AR degradation in human MCF7 cells assessed as AR/actin ratio level at 3 uM after 6 hrs by Western blot analysis (reference value: 100%); type: cell-based
T2 sequence (whole entry): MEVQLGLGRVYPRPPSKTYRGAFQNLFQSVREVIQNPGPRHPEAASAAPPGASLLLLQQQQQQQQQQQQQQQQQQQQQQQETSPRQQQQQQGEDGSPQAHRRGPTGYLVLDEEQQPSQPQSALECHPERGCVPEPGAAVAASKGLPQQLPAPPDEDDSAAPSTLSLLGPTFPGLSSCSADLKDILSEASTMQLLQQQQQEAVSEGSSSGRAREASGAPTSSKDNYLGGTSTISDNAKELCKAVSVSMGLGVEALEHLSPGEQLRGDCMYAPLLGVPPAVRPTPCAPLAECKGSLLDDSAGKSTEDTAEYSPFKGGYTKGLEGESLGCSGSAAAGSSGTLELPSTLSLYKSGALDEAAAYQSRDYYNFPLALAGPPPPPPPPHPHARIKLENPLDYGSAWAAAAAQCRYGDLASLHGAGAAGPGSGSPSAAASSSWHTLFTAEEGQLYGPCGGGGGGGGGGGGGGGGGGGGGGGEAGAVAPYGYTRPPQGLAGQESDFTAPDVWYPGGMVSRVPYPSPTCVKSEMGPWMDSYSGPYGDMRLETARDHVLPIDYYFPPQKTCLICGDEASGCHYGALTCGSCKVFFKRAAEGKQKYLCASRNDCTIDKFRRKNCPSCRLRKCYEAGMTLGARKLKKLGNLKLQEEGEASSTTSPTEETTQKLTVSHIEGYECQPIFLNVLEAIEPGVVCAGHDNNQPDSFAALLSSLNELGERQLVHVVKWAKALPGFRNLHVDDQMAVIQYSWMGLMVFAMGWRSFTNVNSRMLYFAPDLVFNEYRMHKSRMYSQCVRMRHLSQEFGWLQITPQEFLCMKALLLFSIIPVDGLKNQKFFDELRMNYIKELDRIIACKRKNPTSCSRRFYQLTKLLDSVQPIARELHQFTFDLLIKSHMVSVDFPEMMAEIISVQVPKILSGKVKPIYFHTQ

[3] = molecular target: Aryl hydrocarbon receptor (Homo sapiens) (UniProt P35869); test: Induction of AhR degradation in human MCF7 cells assessed as AhR/actin ratio level at 3 uM after 6 hrs by Western blot analysis (reference value: 100%)
[4] = molecular target: T2, Androgen receptor (Homo sapiens); test: Induction of AR degradation in human MCF7 cells assessed as AR/actin ratio level at 6 uM after 6 hrs by Western blot analysis (reference value: 100%); type: cell-based
[5] = molecular target: T1, Estrogen receptor (Homo sapiens); test: Induction of ERalpha degradation in human MCF7 cells assessed as ERalpha/actin ratio level at 3 uM after 6 hrs by Western blot analysis (reference value: 100%); type: cell-based
[6] = molecular target: Aryl hydrocarbon receptor (Homo sapiens) (UniProt P35869); test: Induction of AhR degradation in human MCF7 cells assessed as AhR/actin ratio level at 4.5 uM after 6 hrs by Western blot analysis (reference value: 100%)
MCF7 [7] = test: Cytotoxicity against human MCF7 cells at >6 uM after 6 hrs; type: cell-based; conditions: mcf7, 6 h
[8] = molecular target: T2, Androgen receptor (Homo sapiens); test: Induction of AR degradation in human MCF7 cells at 3 to 6 uM after 6 hrs by Western blot analysis; type: cell-based
[9] = molecular target: T1, Estrogen receptor (Homo sapiens); test: Induction of ERalpha degradation in human MCF7 cells assessed as ERalpha/actin ratio level at 4.5 uM after 6 hrs by Western blot analysis (reference value: 100%); type: cell-based
[10] = molecular target: Aryl hydrocarbon receptor (Homo sapiens) (UniProt P35869); test: Induction of AhR degradation in human MCF7 cells assessed as AhR/actin ratio level at 6 uM after 6 hrs by Western blot analysis (reference value: 100%)
[11] = molecular target: Baculoviral IAP repeat-containing protein 2 (Homo sapiens) (UniProt Q13490); test: Induction of cIAP1 degradation in human MCF7 cells after 6 hrs by Western blot analysis; type: cell-based
[12] = molecular target: T2, Androgen receptor (Homo sapiens); test: Induction of AR degradation in human MCF7 cells at 3 to 6 uM after 6 hrs by Western blot in presence of MG132; type: cell-based
[13] = molecular target: T1, Estrogen receptor (Homo sapiens); test: Induction of ERalpha degradation in human MCF7 cells after 6 hrs by Western blot analysis; type: cell-based
[14] = molecular target: T3, Aryl hydrocarbon receptor (Homo sapiens, UniProt P35869); test: Induction of AhR degradation in human MCF7 cells at 3 to 6 uM after 6 hrs by Western blot analysis; type: cell-based; conditions: mcf7, 6 h
T3 sequence (P35869 whole entry): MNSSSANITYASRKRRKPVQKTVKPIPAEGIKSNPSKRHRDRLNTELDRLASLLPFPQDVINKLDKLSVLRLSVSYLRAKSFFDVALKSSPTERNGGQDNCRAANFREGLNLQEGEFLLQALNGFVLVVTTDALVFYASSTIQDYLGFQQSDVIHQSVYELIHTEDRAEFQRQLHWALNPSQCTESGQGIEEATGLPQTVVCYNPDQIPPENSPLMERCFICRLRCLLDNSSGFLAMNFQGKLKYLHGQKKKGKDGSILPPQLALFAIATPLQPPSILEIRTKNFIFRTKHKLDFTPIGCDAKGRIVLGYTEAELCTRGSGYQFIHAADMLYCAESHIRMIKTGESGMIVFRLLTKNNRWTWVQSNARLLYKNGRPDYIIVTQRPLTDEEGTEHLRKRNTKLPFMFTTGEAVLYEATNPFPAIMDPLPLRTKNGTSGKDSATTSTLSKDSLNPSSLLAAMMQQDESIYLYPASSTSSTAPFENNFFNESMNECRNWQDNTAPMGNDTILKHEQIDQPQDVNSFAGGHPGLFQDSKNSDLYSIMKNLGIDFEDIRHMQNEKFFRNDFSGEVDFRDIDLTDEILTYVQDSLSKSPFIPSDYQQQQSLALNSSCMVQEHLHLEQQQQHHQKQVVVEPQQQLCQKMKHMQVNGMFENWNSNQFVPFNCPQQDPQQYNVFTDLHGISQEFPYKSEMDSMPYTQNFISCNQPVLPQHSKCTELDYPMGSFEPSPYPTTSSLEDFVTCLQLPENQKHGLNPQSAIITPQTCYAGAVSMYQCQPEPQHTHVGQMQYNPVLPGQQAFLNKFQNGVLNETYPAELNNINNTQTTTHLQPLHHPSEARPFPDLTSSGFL

[15] = molecular target: T2, Androgen receptor (Homo sapiens); test: Induction of AR degradation in human MCF7 cells assessed as AR/actin ratio level at 4.5 uM after 6 hrs by Western blot analysis (reference value: 100%); type: cell-based
[16] = molecular target: T1, Estrogen receptor (Homo sapiens); test: Induction of ERalpha degradation in human MCF7 cells assessed as ERalpha/lamin ratio level at 10 uM after 6 hrs by Western blot analysis (reference value: 100%); type: cell-based
[17] = molecular target: T2, Androgen receptor (Homo sapiens); test: Induction of AR degradation in human MCF7 cells at 10 to 20 uM after 6 hrs by Western blot analysis; type: cell-based
[18] = molecular target: T3, Aryl hydrocarbon receptor; test: Induction of AhR degradation in human MCF7 cells at 10 to 20 uM after 6 hrs by Western blot analysis; type: cell-based; conditions: mcf7, 6 h
[19] = molecular target: T1, Estrogen receptor (Homo sapiens); test: Induction of ERalpha degradation in human MCF7 cells assessed as ERalpha/lamin ratio level at 20 uM after 6 hrs by Western blot analysis (reference value: 100%); type: cell-based
[20] = molecular target: T1, Estrogen receptor (Homo sapiens); test: Induction of ERalpha degradation in human MCF7 cells at 10 to 20 uM after 6 hrs by Western blot analysis in presence of MG132; type: cell-based
[21] = molecular target: T2, Androgen receptor (Homo sapiens); test: Induction of AR degradation in human MCF7 cells assessed as AR/lamin ratio level at 20 uM after 6 hrs by Western blot analysis (reference value: 100%); type: cell-based
[22] = molecular target: T3, Aryl hydrocarbon receptor; test: Induction of AhR degradation in human MCF7 cells assessed as AhR/lamin ratio level at 20 uM after 6 hrs by Western blot analysis (reference value: 100%); type: cell-based; conditions: mcf7, 6 h
[23] = molecular target: Baculoviral IAP repeat-containing protein 2 (Homo sapiens) (UniProt Q13490); test: Induction of cIAP1 degradation in human MCF7 cells at 10 to 20 uM after 6 hrs by Western blot analysis in presence of MG132; type: cell-based
[24] = molecular target: T2, Androgen receptor (Homo sapiens); test: Induction of AR degradation in human MCF7 cells at 10 to 20 uM after 6 hrs by Western blot in presence of MG132; type: cell-based
MCF7 [25] = test: Cytotoxicity against human MCF7 cells at 20 uM after 6 hrs; type: cell-based; conditions: mcf7, 6 h
[26] = molecular target: T3, Aryl hydrocarbon receptor; test: Induction of AhR degradation in human MCF7 cells assessed as AhR/lamin ratio level at 10 uM after 6 hrs by Western blot analysis (reference value: 100%); type: cell-based; conditions: mcf7, 6 h
[27] = molecular target: T2, Androgen receptor (Homo sapiens); test: Induction of AR degradation in human MCF7 cells assessed as AR/lamin ratio level at 10 uM after 6 hrs by Western blot analysis (reference value: 100%); type: cell-based
[28] = molecular target: T1, Estrogen receptor (Homo sapiens); test: Induction of ERalpha degradation in human MCF7 cells at 10 to 20 uM after 6 hrs by Western blot analysis; type: cell-based

Baculoviral IAP repeat-containing protein 2 (Homo sapiens), sequence (Q13490 whole entry): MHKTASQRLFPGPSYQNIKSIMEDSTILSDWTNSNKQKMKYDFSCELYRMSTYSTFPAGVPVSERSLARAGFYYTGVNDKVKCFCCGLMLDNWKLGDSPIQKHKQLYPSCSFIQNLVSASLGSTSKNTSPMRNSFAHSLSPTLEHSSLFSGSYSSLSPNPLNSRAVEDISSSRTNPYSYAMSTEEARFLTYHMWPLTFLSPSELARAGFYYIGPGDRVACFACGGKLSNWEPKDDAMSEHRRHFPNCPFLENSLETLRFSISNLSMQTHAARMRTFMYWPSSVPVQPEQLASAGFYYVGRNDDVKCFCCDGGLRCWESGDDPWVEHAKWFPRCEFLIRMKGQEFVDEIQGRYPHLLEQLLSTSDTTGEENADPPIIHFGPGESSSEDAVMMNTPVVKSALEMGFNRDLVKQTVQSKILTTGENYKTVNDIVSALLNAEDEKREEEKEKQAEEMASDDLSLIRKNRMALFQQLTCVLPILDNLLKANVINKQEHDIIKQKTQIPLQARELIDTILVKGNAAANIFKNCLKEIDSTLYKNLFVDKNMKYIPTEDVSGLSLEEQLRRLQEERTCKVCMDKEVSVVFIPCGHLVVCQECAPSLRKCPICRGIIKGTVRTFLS

CC[C@H](C)[C@H]1NC(=O)[C@@H](NC(=O)[C@@H](N)CCCCNC(=O)COCCOCCNC(=O)COCCOCCNC(=O)[C@@H](NC(=O)[C@@H]2CCCN2C(=O)[C@H](NC(=O)[C@H](C)NC)C2CCCCC2)C(c2ccccc2)c2ccccc2)CSSC[C@H](C(=O)N[C@H](CCCNC(=N)N)C(=O)N[C@H](CC(C)(C)C)C(=O)N[C@H](CC(C)C)C(=O)N[C@H](CCC(N)=O)C(=O)NCC(=O)NCC(=O)NCC(=O)N[C@H](CCCNC(=N)N)C(=O)N[C@H](CCCNC(=N)N)C(=O)N[C@H](CCCNC(=N)N)C(=O)N[C@H](CCCNC(=N)N)C(=O)N[C@H](CCCNC(=N)N)C(=O)N[C@H](CCCNC(=N)N)C(=O)N[C@@H](CCCNC(=N)N)C(N)=O)NC(=O)[C@@H](CC(C)C)NC1=O
Activity [1]: 77% | Activity [2]: 77% | Activity [3]: 173% | Activity [4]: 57% | Activity [5]: 87% | Activity [6]: 178% | Activity (MCF7 [7]): Toxic | Activity [8]: Active | Activity [9]: 87% | Activity [10]: 137% | Activity [11]: Dose-dependent effect | Activity [12]: inactive | Activity [13]: Dose-dependent effect | Activity [14]: Not Active | Activity [15]: 72%

CC[C@@H](C)[C@@H]1NC(=O)[C@H](NC(=O)[C@H](N)CCCCNC(=O)CCNC(=O)CCNC(=O)CCNC(=O)CCNC(=O)CCNC(=O)[C@H](NC(=O)[C@H]2CCCN2C(=O)[C@@H](NC(=O)[C@@H](C)NC)C2CCCCC2)C(c2ccccc2)c2ccccc2)CSSC[C@@H](C(=O)N[C@@H](CCCNC(=N)N)C(=O)N[C@@H](CC(C)(C)C)C(=O)N[C@@H](CC(C)C)C(=O)N[C@@H](CCC(N)=O)C(=O)NCC(=O)NCC(=O)NCC(=O)N[C@@H](CCCNC(=N)N)C(=O)N[C@@H](CCCNC(=N)N)C(=O)N[C@@H](CCCNC(=N)N)C(=O)N[C@@H](CCCNC(=N)N)C(=O)N[C@@H](CCCNC(=N)N)C(=O)N[C@@H](CCCNC(=N)N)C(=O)N[C@H](CCCNC(=N)N)C(N)=O)NC(=O)[C@H](CC(C)C)NC1=O
Activity [16]: 82% | Activity [17]: Active | Activity [18]: Not Active | Activity [19]: 64% | Activity [20]: inactive | Activity [21]: 54% | Activity [22]: 98% | Activity [23]: inactive | Activity [24]: inactive | Activity (MCF7 [25]): Non-toxic | Activity [26]: 109% | Activity [27]: 77% | Activity [28]: Active
